Measurements: PMC7618719, “Generation of T cells with reduced off-target cross-reactivities by engineering co-signalling receptors” (Nature Biomedical Engineering, 2026)

Test system: Lck
Test: Lck chemical inhibition assay, CD69 on A-770041-treated c259 TCR-T cells
Type: cell-based, human
Conditions: c259 TCR-T cells treated 1 h with A-770041, U87 with NY-ESO-1 peptides, 4 h, CD69 and TNFα
Experimental: U87 cells (50,000) in 100 μl of DMEM were seeded per well in a 96-well flat-bottom plate and incubated overnight. T cells were treated with the appropriate concentration of A-770041 for 1 h. The DMEM media were discarded and 50,000 A-770041-treated T cells were added to each well in 200 μl of RPMI media. Cells were incubated for 4 h at 37 ^∘C and 5% CO2.
Cells were stained for 20 min at 4 ^∘C, washed with PBS and analysed using a BD X-20 or a Cytoflex LX flow cytometer (Beckman Couter). Data were analysed using FlowJo v.10, RRID:SCR008520 (BD Biosciences) and GraphPad Prism, RRID:SCR002798 (GraphPad Software).

Structure (SMILES): COc1cc(-c2nn([C@H]3CC[C@H](N4CCN(C(C)=O)CC4)CC3)c3ncnc(N)c23)ccc1NC(=O)c1cc2ccccc2n1C [A-770041]
- effect of Lck inhibition on T cell ligand discrimination: increases T cell ligand discrimination
